Reference: patent US10072017B2, “Compounds and methods for the treatment of cystic fibrosis” (Flatley Discovery Lab, LLC, priority 2015, dated 2018)

Molecular target: T1, CFTR (Homo sapiens, UniProt P13569, DEL508-508)
T1 construct: Primary CF airway epithelial cells were obtained from the UNC Cystic Fibrosis Tissue Procurement and Cell Culture Core; host or cells: primary CF airway epithelial cells
Assay: Equivalent current assay in Primary CF airway epithelial cells (NAUC)
Type: cell-based
Details: 24 h, normalized to VX809 (3 μM) positive control; for Nauc @ 3 μM: 3 μM test compound; for Nauc @ 10 μM: 10 μM test compound
Outline: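 NAUC is the area under the curve from forskolin (10 μM) plus VX770 (1 μM) addition to CFTR-172 (20 μM) block, after benzamil (5 μM). It is corrected for vehicle and scaled to 3 μM VX809 as 1.0 and DMSO as 0.0. Cells were exposed for 24 h to compounds with VX809; medians of ≥4 replicates were fitted sigmoidally.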

T1 sequence (P13569 with tags, fused parts or gaps DEL508-508): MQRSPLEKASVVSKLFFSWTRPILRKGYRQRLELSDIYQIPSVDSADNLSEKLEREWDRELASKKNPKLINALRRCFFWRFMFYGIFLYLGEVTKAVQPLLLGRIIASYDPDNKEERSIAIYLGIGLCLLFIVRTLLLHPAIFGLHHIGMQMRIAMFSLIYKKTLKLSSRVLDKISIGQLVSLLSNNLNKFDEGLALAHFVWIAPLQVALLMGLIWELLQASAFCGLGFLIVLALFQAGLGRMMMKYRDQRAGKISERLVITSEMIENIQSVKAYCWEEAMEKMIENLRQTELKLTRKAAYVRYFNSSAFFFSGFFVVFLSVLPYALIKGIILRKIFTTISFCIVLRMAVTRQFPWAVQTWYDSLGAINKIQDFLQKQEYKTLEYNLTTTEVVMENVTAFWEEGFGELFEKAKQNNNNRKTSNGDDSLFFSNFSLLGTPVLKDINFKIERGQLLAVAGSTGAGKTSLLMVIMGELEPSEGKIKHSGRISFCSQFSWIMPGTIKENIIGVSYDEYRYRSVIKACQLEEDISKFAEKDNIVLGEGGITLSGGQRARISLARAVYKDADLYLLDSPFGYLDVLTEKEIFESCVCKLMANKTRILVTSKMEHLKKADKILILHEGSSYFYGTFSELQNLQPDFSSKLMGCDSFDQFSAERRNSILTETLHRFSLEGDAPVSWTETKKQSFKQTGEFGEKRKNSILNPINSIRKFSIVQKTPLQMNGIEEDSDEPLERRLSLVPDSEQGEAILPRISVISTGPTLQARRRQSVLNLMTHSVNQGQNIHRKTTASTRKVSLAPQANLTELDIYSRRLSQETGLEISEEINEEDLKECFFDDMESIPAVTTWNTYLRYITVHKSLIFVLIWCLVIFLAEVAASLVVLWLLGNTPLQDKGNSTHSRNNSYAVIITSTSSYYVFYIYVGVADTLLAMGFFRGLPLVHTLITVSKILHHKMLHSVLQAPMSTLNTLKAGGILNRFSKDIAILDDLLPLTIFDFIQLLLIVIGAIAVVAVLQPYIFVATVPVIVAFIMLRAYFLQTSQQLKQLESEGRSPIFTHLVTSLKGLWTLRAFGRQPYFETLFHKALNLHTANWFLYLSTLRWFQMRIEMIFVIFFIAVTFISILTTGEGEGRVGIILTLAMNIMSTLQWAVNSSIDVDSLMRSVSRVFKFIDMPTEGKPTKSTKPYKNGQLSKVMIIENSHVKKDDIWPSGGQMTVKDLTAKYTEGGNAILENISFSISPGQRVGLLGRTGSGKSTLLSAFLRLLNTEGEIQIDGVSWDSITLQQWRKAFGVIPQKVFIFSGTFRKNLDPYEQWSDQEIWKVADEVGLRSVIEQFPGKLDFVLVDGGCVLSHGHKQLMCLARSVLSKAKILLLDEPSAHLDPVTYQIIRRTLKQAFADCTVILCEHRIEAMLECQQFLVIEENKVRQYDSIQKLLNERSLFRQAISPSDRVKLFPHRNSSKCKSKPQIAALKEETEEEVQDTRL

For `Cc1nc(CC2NC3(C(=O)Nc4c(Cl)cc(Cl)cc43)C3C(=O)N(c4cc(Cl)cc(Cl)c4)C(=O)C23)cs1` (centres unmarked) [Example 248], the “Nauc @ 3 μM” value was “+ (NAUC “+” refers to an observed NAUC <140% of positive control)” and the “Nauc @ 10 μM” value was “++ (NAUC “++” refers to an observed NAUC 170-140% of positive control)”.
In the case of `O=C1C2C3CCCN3C3(C(=O)Nc4c(Cl)cc(Cl)cc43)C2C(=O)N1c1cccc(C(F)(F)F)n1` (centres unmarked) [Example 251], the “Nauc @ 3 μM” value is reported as “+++ (NAUC “+++” refers to an observed NAUC >170% of positive control)” and the “Nauc @ 10 μM” value is reported as “+++ (NAUC “+++” refers to an observed NAUC >170% of positive control)”.
In the case of `Cc1cnc(CC2NC3(C(=O)Nc4c(Cl)cc(Cl)cc43)C3C(=O)N(c4cc(Cl)cc(Cl)c4)C(=O)C23)cn1` (centres unmarked) [Example 252], the “Nauc @ 3 μM” value is reported as “++ (NAUC “++” refers to an observed NAUC 170-140% of positive control)” and the “Nauc @ 10 μM” value is reported as “++ (NAUC “++” refers to an observed NAUC 170-140% of positive control)”.
For `C[C@]1(O)CC2C3C(=O)N(c4cccc(C(F)(F)F)n4)C(=O)C3C3(C(=O)Nc4c(Cl)cc(Cl)cc43)N2C1` (some centres unmarked) [Example 253], the “Nauc @ 3 μM” value was “+ (NAUC “+” refers to an observed NAUC <140% of positive control)” and the “Nauc @ 10 μM” value was “++ (NAUC “++” refers to an observed NAUC 170-140% of positive control)”.
